Each block holds one compound with its values, some of them ahead of it.
What was measured:
[1] = system: Transglutaminase (TGase I) in human keratinocytes; test: Transglutaminase (TGase I ELISA) assay of keratinocyte differentiation, normalized to DNA, Example 1; type: cell-based; settings: 2.5×10^-7 M, 2.5×10^-8 M and 2.5×10^-9 M
Procedure: Human keratinocytes, isolated from neonatal foreskin by trypsin treatment were grown in Dulbecco Modification Eagle (DME) Hams F12 (1:1) medium/10% fetal calf serum in the presence of irradiated 3T3 mouse fibroblasts for establishing dividing keratinocyte colonies. Cells were grown under the above condition until their second passage and kept frozen for future use. […] On day 7, when the cells were 80-90% confluent, they were trypsinized and plated in the serum-free medium for the various experiments.
During the process of terminal differentiation in the epidermis, a 15 nm thick layer of protein, known as the cornified envelope (CE) is formed on the inner surface of the cell periphery. The CE is composed of numerous distinct proteins which have been cross-linked together by the formation of N ^ε -(γ-glutamyl) lysine isodipeptide bonds catalyzed by the action of at least two different transglutaminases (TGases) expressed in the epidermis. TGase I is expressed in abundance in the differentiated layers of the epidermis, especially the granular layer, but is absent in the undifferentiated basal epidermis. […]
Keratinocytes (cultured as described above) were plated in 96 well plates at a density of 3,000 cells per well in 200 μl media. […] The absorbance of samples was read at 492 nm in the plate reader. […] TGase levels were determined by subtracting background from the readings from each treatment and determining mean ±s.d. for the replicates exposed to both Ab.
The level of TGase-1 was normalized to DNA content of the cells in the same well thus eliminating variation due to differences in cell number. DNA quantitation is a particularly useful indicator of cell number, including keratinocyte cell number, because each cell has to all intents and purposes an identical genome and therefore an identical quantity of DNA The total DNA content of a well of cells therefore is directly proportional to the cell number in that well. Quantitation of DNA was used to normalize the TGase data to cell number. […]

[2] = system: transglutaminase 1 (TG1) in human keratinocytes; test: Transglutaminase 1 (TG1) ELISA assay of keratinocyte differentiation, normalised to DNA, Example 2; type: cell-based; settings: for inhibiting keratinocyte TG1 level when used alone, in words: 2.5×10^-7 M retinol or 10^-6 M lactamide-DEA alone, compared with retinoic acid 2.5×10^-7 M
Procedure: Human keratinocytes, isolated from neonatal foreskin by trypsin treatment were grown in Dulbecco Modification Eagle (DME) Hams F12 (1:1) medium/10% fetal calf serum in the presence of irradiated 3T3 mouse fibroblasts for establishing dividing keratinocyte colonies. Cells were grown under the above condition until their second passage and kept frozen for future use. Frozen second passage keratinocytes were thawed and plated into the above medium and grown for five days before they were switched to a serum-free MCDB 153-based medium keratinocyte growth medium (KGM) from Clonetics Corporation, San Diego, Calif. containing 0.15 mM Ca, or keratinocyte serum-free media (KSFM) from GIBCO containing 0.09 mM Ca). On day 7, when the cells were 80-90% confluent, they were trypsinized and plated in the serum-free medium for the various experiments.
During the process of terminal differentiation in the epidermis, a 15 nm thick layer of protein, known as the cornified envelope (CE) is formed on the inner surface of the cell periphery. The CE is composed of numerous distinct proteins which have been cross-linked together by the formation of N ^ε -(γ-glutamyl) lysine isodipeptide bonds catalyzed by the action of at least two different transglutaminases (TGases) expressed in the epidermis. TGase I is expressed in abundance in the differentiated layers of the epidermis, especially the granular layer, but is absent in the undifferentiated basal epidermis. Thus TGase I is a useful marker of epidermal keratinocyte differentiation with high TGase I levels indicating a more differentiated state. An ELISA based TGase I assay, using a TGase I antibody, was used to assess the state of differentiation of the cultured keratinocytes in the examples that follow.
Keratinocytes (cultured as described above) were plated in 96 well plates at a density of 3,000 cells per well in 200 μl of cell culture media. After incubation for four days, the media was changed to media containing test compounds (six replicates per test). The cells were cultured for a further 72 hours after which time the media was aspirated and the plates stored at -70° C. After the plates were removed from the freezer, the cells were further freezed fractured by freezing and thawing and then washed 3× with PBS. The cells were incubated for one hour at room temperature (R/T) with TBS/5% BSA buffer. Cells were then incubated with 100 μl of monoclonal anti-human transglutaminase (IgG) mouse antibody (primary antibody) obtained from Biomedical Technologies Inc. diluted 1:2000 in TBS/1% BSA buffer for two hours at 37° C., and then rinsed six times with wash buffer (TBS/1% BSA/0.05% Tween-20). Cells were next incubated with 100 μl of Fab fragment, peroxidase conjugated anti-mouse IgG antibody (secondary antibody) from Amersham diluted 1:4,000 in wash buffer for two hours at 37° C. and then rinsed three times with wash buffer and three times with PBS. Cells were incubated with substrate solution (4 mg o-phenylene diamine and 3.3 μl 30% H2 O2 in 1O ml 0.1M citrate buffer, pH 5.0) for five minutes at R/T and in darkness (under aluminum foil). The reaction was stopped by the addition of 50 μl 4N H2SO4. The absorbance of samples was read at 492 nm in the plate reader. Out of the six replicates, four were treated with both antibodies, two were treated only with the secondary antibody (i.e., to determine the background binding of the enzyme conjugated antibody). Transglutaminase I levels were determined by subtracted background from the readings from each treatment and determining the mean s.d. for the replicates exposed to both antibodies.
The level of TGase-1 detected after treatment of the cells could be influenced by cell number, i.e., the greater the number of cells the greater the level of TGase-1 detected. The level of TGase-1 was normalized to DNA content of the cells in the same well thus eliminating variation due to differences in cell number. […]

[3] = Homo sapiens, Keratinocyte, Table 2A, 2.5 × 10^-8 M, 72 hour treatment, n = 3, read-out: TGase/DNA (% control)
[4] = Homo sapiens, Keratinocyte, Table 2B, 2.5 × 10^-7 M, 72 hour treatment, n = 3, read-out: TGase/DNA (% control)
[5] = Table 2A, 2.5 × 10^-8 M, 72 hour treatment, n = 3, control 18.42 ± 3.88
[6] = Table 2B, 2.5 × 10^-7 M, 72 hour treatment, n = 3, control 64.11 ± 2.91

SMILES: CC1=C(/C=C/C(C)=C/C=C/C(C)=C/C(=O)O)C(C)(C)CCC1 [Retinoic acid, retinoic acid]
decrease in transglutaminase level, dose dependence [1]: dose dependent
effect on keratinocyte differentiation (transglutaminase level), in words ([1]; vs ethanol control and corresponding retinol treatments): decreased keratinocyte differentiation over both the ethanol control and did so to a significantly greater extent than each of the corresponding 2.5×10^-7 M, 2.5×10^-8 M and 2.5×10^-9 M retinol treatments
effect on keratinocyte differentiation, in words (summary of Examples 1 and 2) [2]: in a dose dependent manner, decreased keratinocyte differentiation
activity at 0.025 µM [2, 3]: 6%
activity at 0.25 µM [2, 4]: 73%
mean TGase/DNA × 10^5 ± s.d [2, 5]: 1.05 ± 1.05
mean TGase/DNA × 10^5 ± s.d [2, 6]: 46.71 ± 7.83

SMILES: CCCCCCCCCCC(O)CC(N)=O (stereo not drawn) [C13-β-hydroxy-acid amide, C13 β-hydroxy acid amide]
inhibitory effect on keratinocyte TG1 level when used alone, in words ([2]; 10^-8 M, amide alone): no inhibitory effect
activity at 0.01 µM ([2]; Homo sapiens, Keratinocyte, Table 2A, 10^-8 M, 72 hour treatment, n = 3, read-out: TGase/DNA (% control)): 101%
mean TGase/DNA × 10^5 ± s.d ([2]; Table 2A, 10^-8 M, 72 hour treatment, n = 3, control 18.42 ± 3.88): 18.53 ± 4.58

decrease in transglutaminase level, dose dependence [1]: dose dependent
inhibiting keratinocyte TG1 level when used alone, in words [2]: less effective
SMILES: CC1=C(/C=C/C(C)=C/C=C/C(C)=C/CO)C(C)(C)CCC1 [Retinol, retinol]
effect on keratinocyte differentiation, in words (summary of Examples 1 and 2) [2]: completely ineffective at decreasing keratinocyte differentiation
activity at 0.025 µM [2, 3]: 79%
activity at 0.25 µM [2, 4]: 91%
mean TGase/DNA × 10^5 ± s.d [2, 5]: 14.62 ± 2.99
mean TGase/DNA × 10^5 ± s.d [2, 6]: 58.47 ± 6.25

inhibiting keratinocyte TG1 level when used alone, in words [2]: less effective
SMILES: CC(O)C(=O)NCCO (centres unmarked) [lactamide-MEA, lactamide monoethanolamide]
activity at 1 µM ([2]; Homo sapiens, Keratinocyte, Table 2B, 10^-6 M, 72 hour treatment, n = 3, read-out: TGase/DNA (% control)): 86%
mean TGase/DNA × 10^5 ± s.d ([2]; Table 2B, 10^-6 M, 72 hour treatment, n = 3, control 64.11 ± 2.91): 55.22 ± 2.43
